This is an account of results in publication PMC5333395, “Assessing histone demethylase inhibitors in cells: lessons learned” (Epigenetics & Chromatin, 2017).

For orientation: IC50 means the point on the concentration scale where inhibition reaches its midpoint.

SMILES strings stand for the structures.

One test has as its target KDM5C (Homo sapiens, UniProt P41229). The arrangement: method as in PMID 26741168. To be noted: AlphaScreen; in vitro biochemical profiling previously reported; cited from earlier work. On the technique in general: Alpha assays give light when donor and acceptor beads are brought close together.
The next test addresses T1, KDM3A (Homo sapiens, UniProt Q9Y4C1).
T1 sequence (Q9Y4C1 1-1321): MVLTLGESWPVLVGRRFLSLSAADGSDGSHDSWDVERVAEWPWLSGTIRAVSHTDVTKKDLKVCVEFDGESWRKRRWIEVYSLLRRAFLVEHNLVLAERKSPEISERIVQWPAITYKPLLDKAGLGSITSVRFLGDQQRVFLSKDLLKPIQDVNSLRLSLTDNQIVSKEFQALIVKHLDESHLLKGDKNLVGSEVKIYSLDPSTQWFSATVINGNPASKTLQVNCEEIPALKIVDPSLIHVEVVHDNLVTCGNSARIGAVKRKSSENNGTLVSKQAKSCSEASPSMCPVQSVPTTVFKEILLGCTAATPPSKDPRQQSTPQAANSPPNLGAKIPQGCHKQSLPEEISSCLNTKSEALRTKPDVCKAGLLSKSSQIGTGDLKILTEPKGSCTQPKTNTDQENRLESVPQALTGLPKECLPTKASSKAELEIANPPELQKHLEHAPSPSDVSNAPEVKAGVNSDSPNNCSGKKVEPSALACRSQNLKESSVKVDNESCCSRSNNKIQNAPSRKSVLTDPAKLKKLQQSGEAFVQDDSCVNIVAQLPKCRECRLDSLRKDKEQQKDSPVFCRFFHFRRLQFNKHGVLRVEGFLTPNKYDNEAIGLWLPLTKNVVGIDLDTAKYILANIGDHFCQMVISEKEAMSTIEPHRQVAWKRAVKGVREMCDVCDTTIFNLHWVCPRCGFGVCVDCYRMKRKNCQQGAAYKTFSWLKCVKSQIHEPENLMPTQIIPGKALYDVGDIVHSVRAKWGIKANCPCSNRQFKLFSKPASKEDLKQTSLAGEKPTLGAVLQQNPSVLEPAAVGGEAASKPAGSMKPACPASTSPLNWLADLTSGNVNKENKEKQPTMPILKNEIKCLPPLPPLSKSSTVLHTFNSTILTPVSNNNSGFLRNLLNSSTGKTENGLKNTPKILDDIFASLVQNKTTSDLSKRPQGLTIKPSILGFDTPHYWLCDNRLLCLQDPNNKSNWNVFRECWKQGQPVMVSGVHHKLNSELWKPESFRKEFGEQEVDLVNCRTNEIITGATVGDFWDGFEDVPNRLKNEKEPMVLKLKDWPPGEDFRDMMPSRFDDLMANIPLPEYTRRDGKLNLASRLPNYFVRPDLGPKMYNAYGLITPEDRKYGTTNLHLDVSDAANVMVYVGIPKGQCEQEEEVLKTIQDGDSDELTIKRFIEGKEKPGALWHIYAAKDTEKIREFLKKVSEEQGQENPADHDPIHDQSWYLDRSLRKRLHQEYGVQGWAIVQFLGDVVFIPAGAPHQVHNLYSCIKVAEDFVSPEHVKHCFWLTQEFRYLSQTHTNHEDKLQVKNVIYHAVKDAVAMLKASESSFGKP
Also on record: method as in PMID 26741168. The settings on record: AlphaScreen; in vitro biochemical profiling previously reported; cited from earlier work.

For another test, the target named is KDM5B (Homo sapiens, UniProt Q9UGL1). Also on record: method as in PMID 26741168. The settings on record: AlphaScreen; in vitro biochemical profiling previously reported; cited from earlier work.
For a further test, the target named is T2, KDM2A (Homo sapiens, UniProt Q9Y2K7).
T2 sequence (Q9Y2K7 1-1162): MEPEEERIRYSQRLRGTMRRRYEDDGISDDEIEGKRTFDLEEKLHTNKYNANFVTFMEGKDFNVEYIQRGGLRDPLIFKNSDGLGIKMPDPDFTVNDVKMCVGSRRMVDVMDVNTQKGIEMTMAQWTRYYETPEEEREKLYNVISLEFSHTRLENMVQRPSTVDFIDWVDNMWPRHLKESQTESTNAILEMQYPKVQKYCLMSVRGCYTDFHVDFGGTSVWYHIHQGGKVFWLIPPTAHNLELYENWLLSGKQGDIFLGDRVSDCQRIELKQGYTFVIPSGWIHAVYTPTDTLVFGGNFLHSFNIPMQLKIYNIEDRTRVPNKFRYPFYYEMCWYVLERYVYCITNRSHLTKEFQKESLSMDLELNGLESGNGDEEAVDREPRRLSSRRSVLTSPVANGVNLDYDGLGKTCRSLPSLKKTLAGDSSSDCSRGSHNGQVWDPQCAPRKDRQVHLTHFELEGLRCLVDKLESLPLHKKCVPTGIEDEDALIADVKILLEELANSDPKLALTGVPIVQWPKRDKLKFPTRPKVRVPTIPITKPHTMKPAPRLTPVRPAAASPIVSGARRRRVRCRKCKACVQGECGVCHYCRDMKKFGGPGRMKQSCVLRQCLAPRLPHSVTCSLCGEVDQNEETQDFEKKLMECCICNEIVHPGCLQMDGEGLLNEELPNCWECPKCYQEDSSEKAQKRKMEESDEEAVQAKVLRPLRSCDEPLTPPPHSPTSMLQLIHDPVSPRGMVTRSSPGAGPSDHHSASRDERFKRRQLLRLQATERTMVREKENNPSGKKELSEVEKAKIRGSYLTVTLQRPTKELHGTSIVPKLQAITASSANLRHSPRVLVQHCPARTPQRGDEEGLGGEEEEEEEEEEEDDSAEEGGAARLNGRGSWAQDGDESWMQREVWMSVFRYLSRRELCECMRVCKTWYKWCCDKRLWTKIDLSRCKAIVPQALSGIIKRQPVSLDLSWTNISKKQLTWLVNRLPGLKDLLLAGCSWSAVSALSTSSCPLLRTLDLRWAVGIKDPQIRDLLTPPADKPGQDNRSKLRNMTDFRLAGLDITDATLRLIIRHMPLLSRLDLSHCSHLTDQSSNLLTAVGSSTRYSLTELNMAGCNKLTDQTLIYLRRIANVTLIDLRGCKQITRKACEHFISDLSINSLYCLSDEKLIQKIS
The arrangement: method as in PMID 26741168. To be noted: RapidFire under low iron condition (0.2 mM); previously reported; read-out: KDM2A IC50, in vitro, RapidFire; cited from earlier work.

The next test addresses KDM5D (Homo sapiens, UniProt Q9BY66). The test can be described thus: AlphaScreen in vitro demethylase assay. In kind it is biochemical. To be noted: IC50 ± SD (number of replicates). As to the method: IC50 values were determined as previously described. The following amendments were made to the protocol for carrying out 2-OG competition assays.

Chain of KDM5D (Q9BY66 whole entry): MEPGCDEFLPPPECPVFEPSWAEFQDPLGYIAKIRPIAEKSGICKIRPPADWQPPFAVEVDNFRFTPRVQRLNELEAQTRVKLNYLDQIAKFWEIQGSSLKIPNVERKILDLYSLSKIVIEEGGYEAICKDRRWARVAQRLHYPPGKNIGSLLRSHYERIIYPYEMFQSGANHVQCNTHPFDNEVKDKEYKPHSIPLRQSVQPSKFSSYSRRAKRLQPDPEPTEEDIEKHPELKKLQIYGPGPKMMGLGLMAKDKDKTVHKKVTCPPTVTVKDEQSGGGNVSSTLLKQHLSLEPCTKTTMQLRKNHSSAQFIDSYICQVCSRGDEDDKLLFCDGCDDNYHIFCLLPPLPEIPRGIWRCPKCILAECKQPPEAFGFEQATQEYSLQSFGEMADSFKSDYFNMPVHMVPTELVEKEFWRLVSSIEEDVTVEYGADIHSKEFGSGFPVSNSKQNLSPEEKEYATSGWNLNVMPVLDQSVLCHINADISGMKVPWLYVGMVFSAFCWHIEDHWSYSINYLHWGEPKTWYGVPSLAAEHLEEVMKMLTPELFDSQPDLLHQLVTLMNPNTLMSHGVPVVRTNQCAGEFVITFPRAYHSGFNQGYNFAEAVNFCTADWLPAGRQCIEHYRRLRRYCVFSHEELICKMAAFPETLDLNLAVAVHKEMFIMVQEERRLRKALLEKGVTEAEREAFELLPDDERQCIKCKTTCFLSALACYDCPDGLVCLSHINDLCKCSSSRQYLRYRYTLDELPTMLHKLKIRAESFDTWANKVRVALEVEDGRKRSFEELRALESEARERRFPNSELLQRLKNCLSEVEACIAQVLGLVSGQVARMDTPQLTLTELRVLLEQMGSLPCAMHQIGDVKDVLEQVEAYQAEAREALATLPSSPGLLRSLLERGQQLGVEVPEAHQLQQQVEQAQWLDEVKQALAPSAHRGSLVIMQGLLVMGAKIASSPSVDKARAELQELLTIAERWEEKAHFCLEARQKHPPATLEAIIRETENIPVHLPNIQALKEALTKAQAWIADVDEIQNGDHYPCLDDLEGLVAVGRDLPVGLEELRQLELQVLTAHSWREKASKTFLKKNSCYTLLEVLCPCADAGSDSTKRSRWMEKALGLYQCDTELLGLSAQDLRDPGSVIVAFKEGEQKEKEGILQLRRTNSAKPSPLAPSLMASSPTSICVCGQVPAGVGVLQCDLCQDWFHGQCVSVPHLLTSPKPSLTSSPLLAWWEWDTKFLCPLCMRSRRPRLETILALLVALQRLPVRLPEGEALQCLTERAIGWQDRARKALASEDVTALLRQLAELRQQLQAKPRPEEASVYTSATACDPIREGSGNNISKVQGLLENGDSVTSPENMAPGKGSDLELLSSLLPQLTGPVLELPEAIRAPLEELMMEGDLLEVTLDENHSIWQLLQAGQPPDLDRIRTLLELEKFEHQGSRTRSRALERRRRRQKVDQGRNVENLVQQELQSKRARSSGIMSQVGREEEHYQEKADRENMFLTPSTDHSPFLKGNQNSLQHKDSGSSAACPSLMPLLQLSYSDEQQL
Chain of KDM5B (Q9UGL1 whole entry): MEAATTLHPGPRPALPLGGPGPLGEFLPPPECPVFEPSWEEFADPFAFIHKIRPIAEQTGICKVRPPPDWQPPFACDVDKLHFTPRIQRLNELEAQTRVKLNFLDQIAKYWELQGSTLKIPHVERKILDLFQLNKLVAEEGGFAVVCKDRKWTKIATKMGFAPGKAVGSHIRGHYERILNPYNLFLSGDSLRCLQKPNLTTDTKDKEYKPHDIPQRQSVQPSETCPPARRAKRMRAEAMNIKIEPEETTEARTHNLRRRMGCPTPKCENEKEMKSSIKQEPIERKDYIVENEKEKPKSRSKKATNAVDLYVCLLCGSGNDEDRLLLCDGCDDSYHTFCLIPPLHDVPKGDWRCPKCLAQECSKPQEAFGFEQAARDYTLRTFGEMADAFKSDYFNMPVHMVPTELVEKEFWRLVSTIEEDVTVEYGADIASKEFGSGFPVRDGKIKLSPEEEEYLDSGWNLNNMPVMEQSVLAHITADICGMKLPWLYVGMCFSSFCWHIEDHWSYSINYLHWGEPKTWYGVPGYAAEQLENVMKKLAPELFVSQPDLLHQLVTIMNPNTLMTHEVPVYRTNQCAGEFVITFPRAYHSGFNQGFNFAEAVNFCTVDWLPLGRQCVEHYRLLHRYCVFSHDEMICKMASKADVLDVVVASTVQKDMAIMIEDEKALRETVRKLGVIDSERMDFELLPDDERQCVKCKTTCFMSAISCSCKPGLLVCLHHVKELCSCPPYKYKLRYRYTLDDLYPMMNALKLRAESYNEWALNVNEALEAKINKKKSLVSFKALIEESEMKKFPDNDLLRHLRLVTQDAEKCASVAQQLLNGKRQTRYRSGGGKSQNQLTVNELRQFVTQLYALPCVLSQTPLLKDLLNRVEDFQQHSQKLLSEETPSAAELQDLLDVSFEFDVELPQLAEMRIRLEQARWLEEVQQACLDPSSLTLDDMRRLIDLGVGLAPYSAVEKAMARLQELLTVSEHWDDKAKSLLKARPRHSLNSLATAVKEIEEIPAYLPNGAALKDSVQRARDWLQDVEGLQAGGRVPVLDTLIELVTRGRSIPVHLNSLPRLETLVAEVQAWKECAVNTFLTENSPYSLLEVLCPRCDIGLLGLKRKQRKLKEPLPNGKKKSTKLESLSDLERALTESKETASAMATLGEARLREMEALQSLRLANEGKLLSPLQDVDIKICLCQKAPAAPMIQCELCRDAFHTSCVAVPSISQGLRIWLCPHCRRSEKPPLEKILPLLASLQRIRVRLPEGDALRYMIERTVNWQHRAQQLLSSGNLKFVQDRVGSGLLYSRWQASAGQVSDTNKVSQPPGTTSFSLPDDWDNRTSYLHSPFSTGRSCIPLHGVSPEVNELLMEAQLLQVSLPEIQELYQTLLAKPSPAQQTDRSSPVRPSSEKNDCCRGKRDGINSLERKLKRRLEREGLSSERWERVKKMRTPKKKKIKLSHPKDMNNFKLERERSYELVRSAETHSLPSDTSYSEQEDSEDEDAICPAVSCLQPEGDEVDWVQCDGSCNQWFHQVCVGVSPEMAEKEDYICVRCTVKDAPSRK
Chain of KDM5C (P41229 whole entry): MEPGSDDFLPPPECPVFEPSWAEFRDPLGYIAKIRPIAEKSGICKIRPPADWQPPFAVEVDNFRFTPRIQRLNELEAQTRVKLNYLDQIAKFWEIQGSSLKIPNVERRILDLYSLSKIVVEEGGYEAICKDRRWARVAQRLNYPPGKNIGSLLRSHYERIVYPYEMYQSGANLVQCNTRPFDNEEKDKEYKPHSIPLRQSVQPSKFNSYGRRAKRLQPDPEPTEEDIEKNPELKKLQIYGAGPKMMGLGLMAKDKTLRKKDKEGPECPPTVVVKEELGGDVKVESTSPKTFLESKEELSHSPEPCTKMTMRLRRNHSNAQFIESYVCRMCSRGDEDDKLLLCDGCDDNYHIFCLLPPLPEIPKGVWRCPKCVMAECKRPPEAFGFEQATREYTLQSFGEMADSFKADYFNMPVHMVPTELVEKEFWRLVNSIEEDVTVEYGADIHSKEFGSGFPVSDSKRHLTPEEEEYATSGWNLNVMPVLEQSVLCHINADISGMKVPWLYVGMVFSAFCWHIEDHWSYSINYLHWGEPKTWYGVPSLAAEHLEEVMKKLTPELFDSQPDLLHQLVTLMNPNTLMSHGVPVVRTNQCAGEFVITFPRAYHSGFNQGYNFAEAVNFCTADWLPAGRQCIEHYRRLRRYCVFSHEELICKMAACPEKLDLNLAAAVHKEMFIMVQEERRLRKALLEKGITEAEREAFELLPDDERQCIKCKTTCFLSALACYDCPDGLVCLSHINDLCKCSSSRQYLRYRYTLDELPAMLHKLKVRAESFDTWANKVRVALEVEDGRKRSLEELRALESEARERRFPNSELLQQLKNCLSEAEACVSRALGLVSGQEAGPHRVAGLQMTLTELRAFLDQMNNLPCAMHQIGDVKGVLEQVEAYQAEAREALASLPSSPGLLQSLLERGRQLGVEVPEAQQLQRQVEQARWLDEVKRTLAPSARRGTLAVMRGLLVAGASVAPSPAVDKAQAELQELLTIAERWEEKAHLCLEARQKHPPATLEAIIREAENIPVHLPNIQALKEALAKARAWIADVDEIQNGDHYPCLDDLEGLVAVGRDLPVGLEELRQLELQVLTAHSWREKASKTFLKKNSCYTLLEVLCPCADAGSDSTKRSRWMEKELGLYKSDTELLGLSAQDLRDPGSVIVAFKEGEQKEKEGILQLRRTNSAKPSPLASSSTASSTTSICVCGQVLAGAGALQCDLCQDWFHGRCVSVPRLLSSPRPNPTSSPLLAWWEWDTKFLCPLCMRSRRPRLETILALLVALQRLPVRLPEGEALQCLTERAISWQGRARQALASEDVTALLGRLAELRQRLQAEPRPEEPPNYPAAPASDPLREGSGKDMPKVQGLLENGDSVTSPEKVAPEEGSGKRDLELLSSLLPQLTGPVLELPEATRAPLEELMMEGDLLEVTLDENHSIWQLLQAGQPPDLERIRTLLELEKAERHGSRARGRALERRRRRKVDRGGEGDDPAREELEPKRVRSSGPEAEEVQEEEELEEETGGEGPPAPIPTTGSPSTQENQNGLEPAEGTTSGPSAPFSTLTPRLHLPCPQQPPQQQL

Consider `Clc1ccc(N/N=C(\c2ccccc2)c2ccccn2)nc1` [JIB-04 E], for which the IC50 at KDM5C was 622 ± 50 nM; on KDM3A, 650 ± 50 nM; on KDM5B it was 561 nM; on KDM2A, 1200 ± 10 nM.

Molecule `CCN(CCN(C)C)C(=O)CNCc1cc(C(=O)O)ccn1` [KDOAM-20] registered an IC50 at KDM5D of 19 ± 4 nM.
